From patent US7943629B2, “Sulphimides as protein kinase inhibitors” (Bayer Schering Pharma AG, priority 2006, dated 2011) come the findings set out here.

Each structure is given as a SMILES string.

Usually IC50 stands for the point on the concentration scale where inhibition reaches its midpoint. Low readings indicate inhibition by little substance, high ones a need for much substance.

The subject of assay [1] is MCF7 breast tumour cells. Nature of the assay: MCF7 proliferation assay. Type of assay: cell-based, human. The conditions noted are these: for antiproliferative activity, MCF7 (in words): summary of Tab. 2; for IC50: Homo sapiens, MCF7, 96 h, 4 days incubation, crystal violet staining. The method, then: Cultivated human MCF7 breast tumour cells (ATCC HTB-22) were plated out in a density of 5000 cells/measurement point in 200 μl of growth medium (RPMI1640, 10% foetal calf serum, 2 mU/mL insulin, 0.1 nM oestradiol) in a 96-well multititre plate. After 24 hours, the cells from a plate (zero plate) were stained with crystal violet (see below), while the medium in the other plates was replaced by fresh culture medium (200 μl) to which the test substances had been added in various concentrations (0 μM, and in the range 0.1-30 μM; the final concentration of the solvent dimethyl sulphoxide was 0.5%). The cells were incubated in the presence of the test substances for 4 days. The cell proliferation was determined by staining the cells with crystal violet: the cells were fixed by adding 20 μl/measurement point of an 11% strength glutaraldehyde solution at room temperature for 15 min. After the fixed cells had been washed three times with water, the plates were dried at room temperature. The cells were stained by adding 100 μl/measurement point of a 0.1% strength crystal violet solution (pH adjusted to pH 3 by adding acetic acid). After the stained cells had been washed three times with water, the plates were dried at room temperature. The dye was dissolved by adding 100 μl/measurement point of a 10% strength acetic acid solution, and the extinction was determined by photometry at a wavelength of 595 nm. The percentage change in cell growth was calculated by normalizing the measurements to the extinctions of the zero point plate (=0%) and the extinction of the untreated (0 μM) cells (=100%). The IC50 values were determined by means of a 4-parameter fit using the company's own software.

In assay [2] the target is T1, CDK1/CycB (Homo sapiens, UniProt P06493).
T1 construct: GST; purchased ProQinase GmbH, Freiburg; host or cells: baculovirus-infected insect cells (Sf9)
T1 sequence (P06493 whole entry): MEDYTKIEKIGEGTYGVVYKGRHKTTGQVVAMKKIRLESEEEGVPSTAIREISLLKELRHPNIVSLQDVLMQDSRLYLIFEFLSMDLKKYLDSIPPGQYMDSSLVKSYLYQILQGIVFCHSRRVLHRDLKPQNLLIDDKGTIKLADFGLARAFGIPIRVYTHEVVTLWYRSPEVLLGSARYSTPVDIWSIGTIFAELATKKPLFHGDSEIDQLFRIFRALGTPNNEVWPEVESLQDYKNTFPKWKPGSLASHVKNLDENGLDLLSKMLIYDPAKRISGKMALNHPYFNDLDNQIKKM
T1 sequence (P14635 whole entry partner): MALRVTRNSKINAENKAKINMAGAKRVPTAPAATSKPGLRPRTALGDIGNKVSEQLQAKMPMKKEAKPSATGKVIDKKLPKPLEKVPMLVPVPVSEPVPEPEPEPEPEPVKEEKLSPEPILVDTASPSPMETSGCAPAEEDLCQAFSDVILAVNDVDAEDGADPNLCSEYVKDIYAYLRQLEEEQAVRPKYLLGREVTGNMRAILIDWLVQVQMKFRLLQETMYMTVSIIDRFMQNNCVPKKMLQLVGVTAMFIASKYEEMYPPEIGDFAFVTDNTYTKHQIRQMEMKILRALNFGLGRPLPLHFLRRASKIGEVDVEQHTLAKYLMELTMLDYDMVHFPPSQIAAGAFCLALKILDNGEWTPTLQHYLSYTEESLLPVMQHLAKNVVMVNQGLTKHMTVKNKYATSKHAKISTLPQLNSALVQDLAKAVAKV
Nature of the assay: CDK1/CycB kinase assay. The settings on record: 0.5 μM ATP, histone IIIS, 22° C., 10 min. The assay is classed as biochemical. The method, then:
Recombinant CDK1- and CycB-GST fusion proteins, purified from baculovirus-infected insect cells (Sf9), were purchased from ProQinase GmbH, Freiburg. The histone IIIS used as kinase substrate can be purchased from Sigma. CDK1/CycB (200 ng/measurement point) was incubated in the presence of various concentrations of test substances (0 μM, and within the range 0.01-100 μM) in assay buffer [50 mM Tris/HCl pH 8.0, 10 mM MgCl2, 0.1 mM Na ortho-vanadate, 1.0 mM dithiothreitol, 0.5 μM ATP, 10 μg/measurement point histone IIIS, 0.2 μCi/measurement point ^33P-gamma-ATP, 0.05% NP40, 1.25% dimethyl sulphoxide] at 22° C. for 10 min. The reaction was stopped by adding EDTA solution (250 mM, pH 8.0, 15 μl/measurement point).
15 μl of each reaction mixture were loaded onto P30 filter strips (from Wallac), and non-incorporated ^33P-ATP was removed by washing the filter strips three times in 0.5% strength phosphoric acid for 10 min each time. After the filter strips had been dried at 70° C. for 1 hour, the filter strips were covered with scintillator strips (MeltiLex™ A, from Wallac) and baked at 90° C. for 1 hour. The amount of incorporated ^33P (substrate phosphorylation) was determined by scintillation measurement in a gamma radiation counter (Wallac).

Assay [3] has as its target T2, CDK2/CycE (Homo sapiens, UniProt P24941).
T2 construct: GST; purchased ProQinase GmbH, Freiburg; host or cells: baculovirus-infected insect cells (Sf9)
Description: CDK2/CycE kinase assay. The assay is classed as biochemical. The settings on record: 0.5 μM ATP, histone IIIS, 22° C., 10 min. The method, then:
Recombinant CDK2- and CycE-GST fusion proteins, purified from baculovirus-infected insect cells (Sf9), were purchased from ProQinase GmbH, Freiburg. The histone IIIS used as kinase substrate was purchased from Sigma.
CDK2/CycE (50 ng/measurement point) was incubated in the presence of various concentrations of test substances (0 μM, and within the range 0.01-100 μM) in assay buffer [50 mM Tris/HCl pH 8.0, 10 mM MgCl2, 0.1 mM Na ortho-vanadate, 1.0 mM dithiothreitol, 0.5 μM ATP, 10 μg/measurement point histone IIIS, 0.2 μCi/measurement point ^33P-gamma-ATP, 0.05% NP40, 1.25% dimethyl sulphoxide] at 22° C. for 10 min. The reaction was stopped by adding EDTA solution (250 mM, pH 8.0, 15 μl/measurement point).
15 μl of each reaction mixture were loaded onto P30 filter strips (from Wallac), and non-incorporated ^33P-ATP was removed by washing the filter strips three times in 0.5% strength phosphoric acid for 10 min each time.
After the filter strips had been dried at 70° C. for 1 hour, the filter strips were covered with scintillator strips (MeltiLex™ A, from Wallac) and baked at 90° C. for 1 hour. The amount of incorporated ^33P (substrate phosphorylation) was determined by scintillation measurement in a gamma radiation counter (Wallac).

Assay [4] concerns the target T3, KDR (VEGFR2) (Homo sapiens, UniProt P35968).
T3 construct: made in house; host or cells: E. coli
Nature of the assay: KDR kinase assay. The conditions noted are these: 10 μM ATP, 22° C., 45 min, HTRF. The assay is classed as biochemical. The method, then:
Recombinant KDR protein was expressed in E. coli and then purified. The kinase substrate used was the biotinylated peptide having the amino acid sequence biotin-DFGLARDMYDKEYYSVG, which was purchased from Biosynthan. KDR [test volume 5 μl] was incubated in the presence of various concentrations of test substances (0 μM, and 10 measurement points within the range 0.001-20 μM in duplicate) in assay buffer [50 mM HEPES pH 7.0, 25.0 mM MgCl2, […], 0.1 mM Na ortho-vanadate, 1.0 mM dithiothreitol, 0.001% NP40, 10 μM ATP, 0.03 μM substrate peptide […], 1.0% dimethyl sulphoxide] at 22° C. for 45 min. The reaction was stopped by adding 5 μl of an EDTA/detection solution [50 mM HEPES pH 7.5, 125 mM EDTA, 0.2% BSA, 0.1 μM streptavidin-XLent (from CisBio), 2 nM PT66-Eu (from PerkinElmer)]. The fluorescence emission at 620 nm and 665 nm after excitation with light of the wavelength 350 nm was measured in a Rubystar HTRF instrument from BMG Labsystems.
The measured data (ratio of emission 665 divided by emission 620 multiplied by 10 000) were normalized to 0% inhibition (enzyme reaction without inhibitor) and 100% inhibition (all assay components apart from enzyme). The IC50 values were determined by means of a 4-parameter fit using the company's own software.
(In general: In TR-FRET formats the signal depends on donor and acceptor labels being close together.)

Assay [5] concerns the target T4, Aurora-C (Homo sapiens, UniProt Q9UQB9).
T4 construct: made in house; host or cells: transiently transfected HEK293 cells
T4 sequence (Q9UQB9 1-309): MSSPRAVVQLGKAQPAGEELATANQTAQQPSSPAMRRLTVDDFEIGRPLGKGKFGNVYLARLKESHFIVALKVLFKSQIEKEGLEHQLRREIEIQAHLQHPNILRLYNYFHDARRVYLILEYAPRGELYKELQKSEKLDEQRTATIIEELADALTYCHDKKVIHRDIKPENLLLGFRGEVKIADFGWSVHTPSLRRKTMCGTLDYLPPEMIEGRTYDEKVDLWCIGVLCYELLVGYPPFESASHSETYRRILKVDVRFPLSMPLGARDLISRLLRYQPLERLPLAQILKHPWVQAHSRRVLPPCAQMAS
Description: Aurora-C kinase assay. Type of assay: biochemical. The conditions noted are these: for IC50: 3 μM ATP, 22° C., 90 min. The method, then:
Recombinant Aurora-C protein was expressed in transiently transfected HEK293 cells and then purified. The kinase substrate used was the biotinylated peptide having the amino acid sequence biotin-FMRLRRLSTKYRT, which was purchased from Jerini AG in Berlin.
Aurora-C [5 nM in the test mixture, test volume 5 μl] was incubated in the presence of various concentrations of test substances (0 μM and 10 measurement points within the range 0.001-20 μM in duplicate) in assay buffer [25 mM HEPES pH 7.4, 0.5 mM MnCl2, 0.1 mM Na ortho-vanadate, 2.0 mM dithiothreitol, 0.05% bovine serum albumin (BSA), 0.01% Triton X-100, 3 μM adenosine trisphosphate (ATP), 0.67 nCi/μl gamma-^33P-ATP, 2.0 μM substrate peptide biotin-FMRLRRLSTKYRT, 1.0% dimethyl sulphoxide] at 22° C. for 90 min. The reaction was stopped by adding 12.5 μl of an EDTA/detection solution [16 mM EDTA, 40 mM ATP, 0.08% Triton X-100, 4 mg/ml PVT streptavidin SPA beads (from Amersham)]. After incubation for 10 minutes, the SPA beads were pelleted by centrifugation at 1000×G for 10 minutes. Measurement took place in a PerkinElmer Topcount scintillation counter. The measured data were normalized to 0% inhibition (enzyme reaction without inhibitor) and 100% inhibition (enzyme reaction in the presence of 0.1 μM staurosporine (from Sigma)). The IC50 values were determined by means of a 4-parameter fit using the company's own software.

T3 sequence (P35968 20-1356, species assumed): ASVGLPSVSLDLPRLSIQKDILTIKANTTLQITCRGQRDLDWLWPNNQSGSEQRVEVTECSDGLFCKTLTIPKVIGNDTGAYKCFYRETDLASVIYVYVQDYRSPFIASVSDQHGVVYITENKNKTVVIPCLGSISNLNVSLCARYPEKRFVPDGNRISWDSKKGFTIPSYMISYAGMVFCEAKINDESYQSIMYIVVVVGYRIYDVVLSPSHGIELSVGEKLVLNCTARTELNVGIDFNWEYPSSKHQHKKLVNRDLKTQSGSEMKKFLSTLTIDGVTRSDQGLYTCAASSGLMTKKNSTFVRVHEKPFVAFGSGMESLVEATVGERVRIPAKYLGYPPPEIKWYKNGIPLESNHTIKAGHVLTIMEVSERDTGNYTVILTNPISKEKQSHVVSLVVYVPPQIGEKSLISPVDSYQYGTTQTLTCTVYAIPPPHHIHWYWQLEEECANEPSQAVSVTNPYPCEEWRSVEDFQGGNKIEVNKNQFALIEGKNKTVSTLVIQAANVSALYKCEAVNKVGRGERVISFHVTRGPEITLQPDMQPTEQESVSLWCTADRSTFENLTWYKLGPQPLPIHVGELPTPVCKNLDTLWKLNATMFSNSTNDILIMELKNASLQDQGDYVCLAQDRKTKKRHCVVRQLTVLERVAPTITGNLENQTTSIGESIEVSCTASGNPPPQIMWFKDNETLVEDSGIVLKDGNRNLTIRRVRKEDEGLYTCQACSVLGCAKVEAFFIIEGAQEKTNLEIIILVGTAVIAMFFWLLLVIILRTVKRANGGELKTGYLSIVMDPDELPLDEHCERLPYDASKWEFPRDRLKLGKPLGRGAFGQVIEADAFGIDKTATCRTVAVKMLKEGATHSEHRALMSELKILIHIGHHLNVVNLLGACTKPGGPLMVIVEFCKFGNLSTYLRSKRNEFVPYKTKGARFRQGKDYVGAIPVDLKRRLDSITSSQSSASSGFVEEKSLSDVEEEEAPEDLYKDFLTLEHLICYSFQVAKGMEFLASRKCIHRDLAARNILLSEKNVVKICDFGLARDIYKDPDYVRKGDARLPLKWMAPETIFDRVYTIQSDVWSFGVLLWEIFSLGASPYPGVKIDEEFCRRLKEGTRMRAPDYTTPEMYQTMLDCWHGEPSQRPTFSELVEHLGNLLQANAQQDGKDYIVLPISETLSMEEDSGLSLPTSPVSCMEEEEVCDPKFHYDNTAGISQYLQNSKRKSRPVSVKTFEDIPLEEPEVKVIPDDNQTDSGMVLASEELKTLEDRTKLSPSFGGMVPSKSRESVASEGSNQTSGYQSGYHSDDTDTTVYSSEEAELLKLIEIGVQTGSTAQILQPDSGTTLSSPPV

In the case of `Cc1ccc(S(=O)(=O)N=S(C)c2ccc(Nc3ncc(Br)c(N[C@H](C)C(C)(C)O)n3)cc2)nc1` (mixture of isomers) [Example 10, (RS)—S-{4-[(5-Bromo-4-{[(R)-2-hydroxy-1,2-dimethylpropyl]amino}pyrimidin-2-yl)amino]phenyl}-S-methyl-N-[(5-methyl-2-pyridyl)sulphonyl]sulphimide], in assay [1], the “antiproliferative activity, MCF7 (in words)” value is on record as “excellent antiproliferative activity”.
In the case of `C[C@@H](Nc1nc(Nc2ccc(S(C)=NS(=O)(=O)c3ccc(Cl)s3)cc2)ncc1Br)C(C)(C)O` (mixture of isomers) [Example 17, (RS)—S-{4-[(5-Bromo-4-{[(R)-2-hydroxy-1,2-dimethylpropyl]amino}pyrimidin-2-yl)amino]phenyl}-N-[(5-chloro-2-thienyl)sulphonyl]-S-methylsulphimide], the “antiproliferative activity, MCF7 (in words)” value in assay [1] was “excellent antiproliferative activity”.
As for `Cc1ccc(S(=O)(=O)N=S(C)c2cccc(Nc3ncc(Br)c(NC(C)C)n3)c2)cc1` (racemic) [Example 2, (RS)—S-(3-{[5-Bromo-4-(isopropylamino)pyrimidin-2-yl]amino}phenyl)-S-methyl-N-(tolylsulphonyl)sulphimide], the concentration for half-maximal inhibition (IC50) is more than 1000 nM in assay [2], more than 1000 nM in assay [3] and 200 nM in assay [4].
In the case of `Cc1ccc(S(=O)(=O)N=S(C)c2ccc(Nc3ncc(Br)c(NC4CC4)n3)cc2)cc1` (racemic) [Example 3, (RS)—S-(4-{[5-Bromo-4-(cyclopropylamino)pyrimidin-2-yl]amino}phenyl)-S-methyl-N-(tolylsulphonyl)sulphimide], the IC50 in assay [5] is 90 nM; in assay [2] it was more than 1000 nM; in assay [4], 13 nM; in assay [1], 340 nM. In addition, in assay [5] (summary of Tab. 1), the “inhibition of Aurora C kinase (in words)” value is listed as “inhibits”.
As for `Cc1ccc(S(=O)(=O)N=S(C)c2cccc(Nc3ncc(Br)c(NC4CC4)n3)c2)cc1` (racemic) [Example 4, (RS)—S-(3-{[5-Bromo-4-(cyclopropylamino)pyrimidin-2-yl]amino}phenyl)-S-methyl-N-(tolylsulphonyl)sulphimide], the figures for the IC50 in assay [2], in assay [3] and in assay [4] were more than 1000 nM, more than 1000 nM and 170 nM, respectively.
Consider `Cc1ccc(S(=O)(=O)N=S(C)c2ccc(Nc3nccc(NC(C)C)n3)cc2)cc1` (racemic) [Example 5, (RS)—S-(4-{[4-(Isopropylamino)pyrimidin-2-yl]amino}phenyl)-S-methyl-N-(tolylsulphonyl)sulphimide], for which the IC50 is 4600 nM in assay [5], more than 1000 nM in assay [2], more than 1000 nM in assay [3] and 760 nM in assay [4].
For `Cc1ccc(S(=O)(=O)N=S(C)c2ccc(Nc3ncc(Br)c(Nc4ccccc4)n3)cc2)cc1` (racemic) [Example 6, (RS)—S-{4-[(4-Anilino-5-bromopyrimidin-2-yl)amino]phenyl}-S-methyl-N-(tolylsulphonyl)sulphimide], the IC50 in assay [2] is more than 1000 nM; in assay [3], more than 1000 nM; in assay [4] it was 120 nM.
With `Cc1ccc(S(=O)(=O)N=S(C)c2ccc(Nc3ncc(Br)c(NCCO)n3)cc2)cc1` (racemic) [Example 7, (RS)—S-[4-({5-Bromo-4-[(2-hydroxyethyl)amino]pyrimidin-2-yl}amino)phenyl]-S-methyl-N-(tolylsulphonyl)sulphimide], the IC50 in assay [5] was 680 nM; in assay [2], more than 1000 nM; in assay [3] it was more than 1000 nM; in assay [4], 43 nM.
As to `CC(=O)NCCNc1nc(Nc2ccc(S(C)=NS(=O)(=O)c3ccc(C)cc3)cc2)ncc1Br` (racemic) [Example 23, (RS)—S-{4-[(4-{[2-(Acetylamino)ethyl]amino}-5-bromopyrimidin-2-yl)amino]-phenyl}-S-methyl-N-(tolylsulphonyl)sulphimide], the IC50 in assay [5] stood at 36 nM; in assay [2], 990 nM; in assay [4], 35 nM; in assay [1], 2200 nM.
